The test system of assay [1] is Mtb H37Rv strain. The experiment in a line: microplate alamar blue assay (MABA), MIC. It is filed as cell-based, Mycobacterium tuberculosis. The settings on record: lowest concentration leading to at least 90% inhibition of bacterial growth signal, average of three measurements.
The target in assay [2] is Pks13-TE (Mycobacterium tuberculosis, UniProt I6X8D2). The experiment in a line: biochemical. It is filed as binding. As to conditions: Pks13-TE 30 µM, 3% DMSO, average of three measurements; for ΔTm at 150 µM: compound 150 µM (1:5); for ΔTm at 300 µM: compound 300 µM (1:10).
The mark [3] stands for this setting: Mycobacterium tuberculosis, H37RV, read-out: MIC.

Converted amounts (≈) assume the structure as drawn. Where two headings read alike, the source gives them in different places.

Chain of Pks13-TE (I6X8D2 1451-1733): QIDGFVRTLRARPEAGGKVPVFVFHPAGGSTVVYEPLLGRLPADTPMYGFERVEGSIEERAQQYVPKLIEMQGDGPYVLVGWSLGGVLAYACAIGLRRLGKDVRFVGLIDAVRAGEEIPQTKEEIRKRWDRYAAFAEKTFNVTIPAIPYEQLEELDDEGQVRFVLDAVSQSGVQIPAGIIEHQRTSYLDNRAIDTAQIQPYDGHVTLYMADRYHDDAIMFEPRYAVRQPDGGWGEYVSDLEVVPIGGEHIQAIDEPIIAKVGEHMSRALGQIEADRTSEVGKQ

On to `CC(=O)c1c(C)n(-c2ccc(N(C)C)cc2)c2ccc(O)c(CN3CCCC3)c12` [Compound 52, 1-(1-(4-(dimethylamino)phenyl)-5-hydroxy-2-methyl-4-(pyrrolidin-1-ylmethyl)-1H-indol-3-yl)ethan-1-one], for which, in assay [1] (setting [3]), the minimum inhibitory concentration (MIC) is 0.5 µg/mL (≈ 1.28 µM). Also, in assay [2], the ΔTm at 150 µM was 11.4 ± 0.02 °C and the ΔTm at 300 µM was found to be 10.3 ± 0.04 °C.

Take `CCOC(=O)c1c(C)n(-c2ccc(OC)cc2)c2ccc(O)c(CN3CCCCC3)c12` [Compound 34, Ethyl 5-hydroxy-1-(4-methoxyphenyl)-2-methyl-4-(piperidin-1-ylmethyl)-1H-indole-3-carboxylate]: the MIC in assay [1] (setting [3]) was 0.5 to 8 µg/mL (≈ 1.18 to 18.9 µM); in assay [1] it was 1 µg/mL (≈ 2.37 µM). As to `CCOC(=O)c1c(C)n(-c2ccc(N(C)C)cc2)c2ccc(O)c(CN3CCCCC3)c12` [Compound 49, Ethyl 1-(4-(dimethylamino)phenyl)-5-hydroxy-2-methyl-4-(piperidin-1-ylmethyl)-1H-indole-3-carboxylate], the MIC in assay [1] (setting [3]) is 0.5 to 8 µg/mL (≈ 1.15 to 18.4 µM); in assay [1] it was 1 µg/mL (≈ 2.3 µM). On to `CC(=O)c1c(C)n(-c2ccc(N(C)C)cc2)c2ccc(O)c(CN3CCCCC3)c12` [Compound 50, 1-(1-(4-(dimethylamino)phenyl)-5-hydroxy-2-methyl-4-(piperidin-1-ylmethyl)-1H-indol-3-yl)ethan-1-one], for which, in assay [1] (setting [3]), the MIC came out at 0.5 µg/mL (≈ 1.23 µM). The same measure, in the same setting: as for `CC(=O)c1c(C)n(-c2ccc(C(C)(C)C)cc2)c2ccc(O)c(CN3CCCCC3)c12` [Compound 55, 1-(1-(4-(tert-butyl)phenyl)-5-hydroxy-2-methyl-4-(piperidin-1-ylmethyl)-1H-indol-3-yl)ethan-1-one], the figure is 0.125 µg/mL (≈ 0.299 µM); as for `CNC(=O)c1c(C)n(-c2ccc(OC)cc2)c2ccc(O)c(CN3CCCCC3)c12` [Compound 30, 5-hydroxy-1-(4-methoxyphenyl)-N,2-dimethyl-4-(piperidin-1-ylmethyl)-1H-indole-3-carboxamide], 16 µg/mL (≈ 39.3 µM). On the same count and under the same terms, as for `CC(=O)c1c(C)n(-c2ccc(N(C)C)cc2)c2ccc(O)c(CN3CCC(C)CC3)c12` [Compound 53, 1-(1-(4-(dimethylamino)phenyl)-5-hydroxy-2-methyl-4-((4-methylpiperidin-1-yl)methyl)-1H-indol-3-yl)ethan-1-one], the figure is 1 µg/mL (≈ 2.38 µM).

For the molecule `CNC(=O)c1c(C)n(-c2ccccc2)c2ccc(O)c(CN3CCCCC3)c12` [Compound 29, 5-hydroxy-N,2-dimethyl-1-phenyl-4-(piperidin-1-ylmethyl)-1H-indole-3-carboxamide], the MIC in assay [1] (setting [3]) and in assay [1] was more than 64 µg/mL each time. With `CNC(=O)c1c(-c2ccc(OC)cc2)n(-c2ccccc2)c2ccc(O)c(CN3CCCCC3)c12` [Compound 22, 5-hydroxy-2-(4-methoxyphenyl)-N-methyl-1-phenyl-4-(piperidin-1-ylmethyl)-1H-indole-3-carboxamide], the MIC in assay [1] (setting [3]) is 16 µg/mL (≈ 34.1 µM). For the molecule `CC(=O)c1c(C)n(-c2ccc(N(C)C)cc2)c2ccc(O)c(CN(C)C)c12` [Compound 51, 1-(4-((dimethylamino)methyl)-1-(4-(dimethylamino)phenyl)-5-hydroxy-2-methyl-1H-indol-3-yl)ethan-1-one], in assay [1] (setting [3]), the MIC came to 2 µg/mL (≈ 5.47 µM). `CNC(=O)c1c(-c2ccc(O)cc2)n(-c2ccccc2)c2ccc(O)c(CN3CCCCC3)c12` [Compound 24, 5-hydroxy-2-(4-hydroxyphenyl)-N-methyl-1-phenyl-4-(piperidin-1-ylmethyl)-1H-indole-3-carboxamide]: the minimum inhibitory concentration (MIC) in assay [1] (setting [3]) stood at 4 µg/mL (≈ 8.78 µM). For `CCOC(=O)c1c(-c2ccc(O)cc2)[nH]c2ccc(O)c(CN3CCCCC3)c12` [Compound 14, Ethyl 5-hydroxy-2-(4-hydroxyphenyl)-4-(piperidin-1-ylmethyl)-1H-indole-3-carboxylate], in assay [2], the ΔTm at 150 µM was found to be 5.5 ± 0.04 °C and the ΔTm at 300 µM was determined as 4.9 ± 0.02 °C. On to `CCOC(=O)c1c(-c2ccc(OC)cc2)[nH]c2ccc(O)c(CN3CCCCC3)c12` [Compound 13, Ethyl 5-hydroxy-2-(4-methoxyphenyl)-4-(piperidin-1-ylmethyl)-1H-indole-3-carboxylate], for which the MIC in assay [1] (setting [3]) worked out at 32 µg/mL (≈ 78.3 µM). For `CC(=O)c1c(-c2ccc(O)cc2)n(-c2ccccc2)c2ccc(O)c(CN3CCCCC3)c12` [Compound 20, 1-(5-hydroxy-2-(4-hydroxyphenyl)-1-phenyl-4-(piperidin-1-ylmethyl)-1H-indol-3-yl) ethan-1-one], the MIC in assay [1] (setting [3]) is 16 µg/mL (≈ 36.3 µM). On to `CCOC(=O)c1c(C)n(-c2ccc(F)cc2)c2ccc(O)c(CN3CCCCC3)c12` [Compound 37, Ethyl 1-(4-fluorophenyl)-5-hydroxy-2-methyl-4-(piperidin-1-ylmethyl)-1H-indole-3-carboxylate], for which the MIC is 0.5 to 8 µg/mL (≈ 1.22 to 19.5 µM) in assay [1] (setting [3]) and 1 µg/mL (≈ 2.44 µM) in assay [1]. With `CCNC(=O)c1c(-c2ccc(OC)cc2)n(-c2ccccc2)c2ccc(O)c(CN3CCCCC3)c12` [Compound 23, N-ethyl-5-hydroxy-2-(4-methoxyphenyl)-1-phenyl-4-(piperidin-1-ylmethyl)-1H-indole-3-carboxamide], in assay [1] (setting [3]), the MIC turned out to be 16 µg/mL (≈ 33.1 µM). Still for that read-out and setting: as for `COc1ccc(-c2c(C(C)=O)c3c(CN4CCCCC4)c(O)ccc3n2-c2ccccc2)cc1` [Compound 19, 1-(5-hydroxy-2-(4-methoxyphenyl)-1-phenyl-4-(piperidin-1-ylmethyl)-1H-indol-3-yl) ethan-1-one], the figure is 4 µg/mL (≈ 8.8 µM); as for `CC(=O)c1c(C)n(-c2ccc(C(C)(C)C)cc2)c2ccc(O)c(CN3CCCC3)c12` [Compound 56, 1-(1-(4-(tert-butyl)phenyl)-5-hydroxy-2-methyl-4-(pyrrolidin-1-ylmethyl)-1H-indol-3-yl)ethan-1-one], 0.25 µg/mL (≈ 0.618 µM). With “Ethyl 1-(4-(tert-butyl)phenyl)-5-hydroxy-2-methyl-4-(piperidin-1-ylmethyl)-1H-indole-3-carboxylate [Compound 57]”, the MIC in assay [1] stood at 0.5 µg/mL.

As to `CCOC(=O)c1c(C)n(-c2ccc(C)cc2)c2ccc(O)c(CN3CCCCC3)c12` [Compound 31, Ethyl 5-hydroxy-2-methyl-4-(piperidin-1-ylmethyl)-1-(p-tolyl)-1H-indole-3-carboxylate], the MIC in assay [1] (setting [3]) is 0.5 to 8 µg/mL (≈ 1.23 to 19.7 µM); in assay [1], 1 µg/mL (≈ 2.46 µM).

For `CCOC(=O)c1c(-c2ccc(OC)cc2)n(-c2ccccc2)c2ccc(O)c(CN3CCCCC3)c12` [Compound 17, Ethyl 5-hydroxy-2-(4-methoxyphenyl)-1-phenyl-4-(piperidin-1-ylmethyl)-1H-indole-3-carboxylate], the MIC in assay [1] (setting [3]) was 4 µg/mL (≈ 8.25 µM). Still for that read-out and setting: next, `CC(=O)c1c(C)n(-c2ccc(C(C)C)cc2)c2ccc(O)c(CN3CCCCC3)c12` [Compound 54, 1-(5-hydroxy-1-(4-isopropylphenyl)-2-methyl-4-(piperidin-1-ylmethyl)-1H-indol-3-yl)ethan-1-one]: 0.125 µg/mL (≈ 0.309 µM). Turning to `CCOC(=O)c1c(-c2ccc(O)cc2)n(-c2ccccc2)c2ccc(O)c(CN3CCCCC3)c12` [Compound 18, Ethyl 5-hydroxy-2-(4-hydroxyphenyl)-1-phenyl-4-(piperidin-1-ylmethyl)-1H-indole-3-carboxylate], the MIC in assay [1] (setting [3]) was 2 to 32 µg/mL (≈ 4.25 to 68 µM); in assay [1], 2 µg/mL (≈ 4.25 µM). `CCNC(=O)c1c(-c2ccc(O)cc2)n(-c2ccccc2)c2ccc(O)c(CN3CCCCC3)c12` [Compound 25, N-ethyl-5-hydroxy-2-(4-hydroxyphenyl)-1-phenyl-4-(piperidin-1-ylmethyl)-1H-indole-3-carboxamide]: the MIC in assay [1] (setting [3]) came to 8 µg/mL (≈ 17 µM).

Source of the values: paper PMC9106008, “Design, Synthesis and Biological Evaluation of N-phenylindole Derivatives as Pks13 Inhibitors againstMycobacterium tuberculosis” (Molecules, 2022).
